ChEMBL document CHEMBL1201861, “Genomics of Drug Sensitity in Cancer screening data, Wellcome Trust Sanger Institute”

Columns and labels:
Test in all cases: cells
Conditions in all cases: Homo sapiens
[1] = system: COR-L88; type: functional, cell-based;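 also: growth inhibition of COR-L88 cells, read out with a cell viability assay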
[2] = system: CP66-MEL; type: functional, cell-based;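 also: growth inhibition of CP66-MEL cells determined in a cell viability assay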
[3] = system: CW-2; type: functional, cell-based;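 also: growth inhibition of CW-2 cells, read out by a cell viability assay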
[4] = system: Calu-6; type: functional, cell-based;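 also: growth of human Calu-6 cells, read out by a cell viability assay, IC50 marking inhibition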
[5] = system: D283 Med; type: functional, cell-based
[6] = system: D-502MG; type: functional, cell-based
[7] = system: DB; type: functional, cell-based
[8] = system: DEL; type: functional, cell-based;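 also: growth inhibition of the human DEL cell line, read out with a cell viability assay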
[9] = system: DOHH-2; type: functional, cell-based;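 also: growth inhibition of human DOHH-2 cells, read out with a cell viability assay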
[10] = system: ES3; type: functional, cell-based;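 also: growth inhibition of ES3 cells, read out with a cell viability assay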
[11] = system: ES5; type: functional, cell-based;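 also: growth inhibition of human ES5 cells, read out by a cell viability assay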
[12] = system: ES8; type: functional, cell-based;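 also: growth inhibition of human ES8 cells, read out with a cell viability assay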
[13] = system: EW-1; type: functional, cell-based;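 also: growth inhibition of the human EW-1 cell line, read out by a cell viability assay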
[14] = system: GAK; type: functional, cell-based
[15] = system: GI-ME-N; type: functional, cell-based;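 also: growth inhibition of human GI-ME-N cells, read out with a cell viability assay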
[16] = system: GT3TKB; type: functional, cell-based;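 also: growth inhibition of the cell line, read out with a cell viability assay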
[17] = system: HH; type: functional, cell-based
[18] = system: HL-60; type: functional, cell-based;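 also: growth inhibition of human HL-60 cells, read out with a cell viability assay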
[19] = system: HT-144; type: functional, cell-based
[20] = system: HuTu80; type: functional, cell-based, HUTU-80;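 also: growth inhibition of HuTu80 human cells, determined with a cell viability readout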
[21] = system: IA-LM; type: functional, cell-based;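 also: cell viability assay measuring growth inhibition of human IA-LM cells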
[22] = system: IST-MES1; type: functional, cell-based;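 also: growth inhibition of IST-MES1 cells, measured with a cell viability assay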
[23] = system: J-RT3-T3-5; type: functional, cell-based;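 also: cell viability assay measuring growth inhibition of human J-RT3-T3-5 cells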
[24] = system: JAR; type: functional, cell-based;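 also: growth inhibition of human JAR cells determined with a cell viability assay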
[25] = system: JVM-2; type: functional, cell-based;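 also: growth inhibition of JVM-2 cells determined by a cell viability assay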
[26] = system: K5; type: functional, cell-based
[27] = system: KALS-1; type: functional, cell-based;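 also: growth inhibition of KALS-1 cells, determined with a cell viability assay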
[28] = system: KARPAS-299; type: functional, cell-based
[29] = system: KARPAS-45; type: functional, cell-based;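 also: inhibition of cell line growth, read out through a viability assay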
[30] = system: KM12; type: functional, cell-based;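 also: KM12 cell growth inhibition, read out with a cell viability assay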
[31] = system: KMOE-2; type: functional, cell-based;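 also: growth inhibition of human KMOE-2 cells, read out with a cell viability assay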
[32] = system: L-363; type: functional, cell-based
[33] = system: LAN-6; type: functional, cell-based;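 also: growth inhibition of LAN-6 cells, determined with a cell viability assay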
[34] = system: LB2518-MEL; type: functional, cell-based;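 also: growth inhibition of human LB2518-MEL cells, measured with a cell viability assay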
[35] = system: LC-2-ad; type: functional, cell-based;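 also: growth inhibition of human LC-2-ad cells, read out with a cell viability assay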
[36] = system: LOX IMVI; type: functional, cell-based
[37] = system: LU-134-A; type: functional, cell-based
[38] = system: Lu-65; type: functional, cell-based;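 also: growth inhibition of Lu-65 cancer cells, read out by a cell viability assay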
[39] = system: MEG-01; type: functional, cell-based;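 also: growth inhibition of MEG-01 cells, read out by a cell viability assay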
[40] = system: MHH-PREB-1; type: functional, cell-based;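 also: cell viability assay measuring inhibition of proliferation of human MHH-PREB-1 cells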
[41] = system: MLMA; type: functional, cell-based;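 also: growth inhibition of MLMA cells (human), determined through a cell viability readout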
[42] = system: MOLT-4; type: functional, cell-based;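 also: growth inhibition of MOLT-4 cells, determined with a cell viability readout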
[43] = system: MV4-11; type: functional, cell-based, MV-4-11;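 also: cell viability readout measuring growth inhibition of human MV-4-11 cells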
[44] = system: MZ7-mel; type: functional, cell-based;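 also: growth inhibition of human MZ7-mel cells, measured by a cell viability assay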
[45] = system: NCI-H1581; type: functional, cell-based;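 also: cell growth inhibition read out by a viability assay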
[46] = system: NCI-H1770; type: functional, cell-based;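 also: growth inhibition of NCI-H1770 cells determined with a viability readout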
[47] = system: SNU1; type: functional, cell-based;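 also: growth inhibition of human NCI-SNU-1 cells, measured with a cell viability assay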
[48] = system: NMC-G1; type: functional, cell-based;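 also: growth inhibition of the NMC-G1 cell line, measured with a cell viability read-out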
[49] = system: NTERA-2-cl-D1; type: functional, cell-based;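 also: inhibition of cell growth, measured with a cell viability assay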
[50] = system: OCUB-M; type: functional, cell-based;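 also: growth inhibition of the cancer cell line, read out through a cell viability assay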
[51] = system: ONS-76; type: functional, cell-based;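 also: growth inhibition of human ONS-76 cells, read out with a cell viability assay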
[52] = system: OVCAR-4; type: functional, cell-based;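 also: growth inhibition of human OVCAR-4 cells, measured with a cell viability assay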
[53] = system: QIMR-WIL; type: functional, cell-based;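 also: growth inhibition of QIMR-WIL cells, read out with a cell viability assay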
[54] = system: RPMI-8866; type: functional, cell-based
[55] = system: RXF 393; type: functional, cell-based;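 also: growth inhibition of human RXF 393 cells, read out with a cell viability assay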
[56] = system: SBC-1; type: functional, cell-based;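 also: cell viability assay measuring growth inhibition of the SBC-1 cell line, IC50 being the concentration that halves growth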
[57] = system: SHP77; type: functional, cell-based, SHP-77;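 also: growth inhibition of human SHP-77 cells measured by a cell viability assay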
[58] = system: SK-N-FI; type: functional, cell-based;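 also: cell viability assay measuring growth inhibition of human SK-N-FI cells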
[59] = system: SK-PN-DW; type: functional, cell-based;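 also: growth inhibition measured with a viability assay on these cells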
[60] = system: SW 962; type: functional, cell-based;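 also: growth inhibition of human SW962 cells, read out by a cell viability assay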
[61] = system: A3-KAW; type: functional, cell-based;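 also: growth inhibition of human A3-KAW cells, read out with a cell viability assay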
[62] = system: A4-Fuk; type: functional, cell-based
[63] = system: A704; type: functional, cell-based
[64] = system: TE-10; type: functional, cell-based
[65] = system: TE-11; type: functional, cell-based
[66] = system: UACC-257; type: functional, cell-based

Structure (SMILES): COc1cc(Nc2c(C#N)cnc3cc(OCCCN4CCN(C)CC4)c(OC)cc23)c(Cl)cc1Cl [BOSUTINIB]
- IC50 [1]: > 2 µM
- IC50 [2]: > 2 µM
- IC50 [3]: > 2 µM
- IC50 [4]: > 2 µM
- IC50 [5]: > 2 µM
- IC50 [6]: > 2 µM
- IC50 [7]: > 2 µM
- IC50 [8]: 1.44 µM
- IC50 [9]: > 2 µM
- IC50 [10]: > 2 µM
- IC50 [11]: 1.87 µM
- IC50 [12]: > 2 µM
- IC50 [13]: > 2 µM
- IC50 [15]: > 2 µM
- IC50 [16]: > 2 µM
- IC50 [17]: > 2 µM
- IC50 [18]: > 2 µM
- IC50 [19]: > 2 µM
- IC50 [20]: > 2 µM
- IC50 [21]: > 2 µM
- IC50 [22]: > 2 µM
- IC50 [23]: 1.52 µM
- IC50 [24]: 1.49 µM
- IC50 [25]: > 2 µM
- IC50 [26]: > 2 µM
- IC50 [27]: > 2 µM
- IC50 [28]: > 2 µM
- IC50 [29]: 0.925 µM
- IC50 [30]: > 2 µM
- IC50 [31]: > 2 µM
- IC50 [32]: > 2 µM
- IC50 [33]: > 2 µM
- IC50 [34]: > 2 µM
- IC50 [35]: > 2 µM
- IC50 [36]: 1.75 µM
- IC50 [37]: > 2 µM
- IC50 [38]: > 2 µM
- IC50 [39]: 0.512 µM
- IC50 [40]: > 2 µM
- IC50 [41]: 0.907 µM
- IC50 [42]: > 2 µM
- IC50 [43]: 1.7 µM
- IC50 [44]: > 2 µM
- IC50 [45]: > 2 µM
- IC50 [46]: > 2 µM
- IC50 [47]: > 2 µM
- IC50 [48]: > 2 µM
- IC50 [49]: > 2 µM
- IC50 [50]: > 2 µM
- IC50 [51]: 1.68 µM
- IC50 [52]: > 2 µM
- IC50 [53]: 1.09 µM
- IC50 [54]: 1.26 µM
- IC50 [55]: > 2 µM
- IC50 [56]: > 2 µM
- IC50 [57]: > 2 µM
- IC50 [58]: > 2 µM
- IC50 [59]: > 2 µM
- IC50 [60]: > 2 µM
- IC50 [61]: 0.792 µM
- IC50 [62]: 1.31 µM
- IC50 [63]: > 2 µM
- IC50 [64]: > 2 µM
- IC50 [65]: > 2 µM
- IC50 [66]: > 2 µM
